Source: US4241052A, “Novel nitrosourea compounds and process for preparing the same” (Tanabe Seiyaku Co., Ltd., priority 1978, dated 1980)

Columns and labels:
[1] = test system: tumor cells of lymphoid leukemia L-1210; details: tumor cells implanted intraperitoneally; U.S. Pat. No. 4086451 and Japanese publications; cited from earlier work
[2] = Preventive effect against the growth of Ehrlich ascites carcinoma (Method A); format: in vivo, mice (ICR, female); details: mouse, in vivo, ip; max dose, 100% inhibition without death; doses of the table in mg/kg/day; read-out: MTD (Maximum Tolerated Dose)
Protocol: (§1) (A) Preventive effect against the growth of Ehrlich ascites tumor
(§2) 10^6 tumor cells of Ehrlich ascites carcinoma were inoculated intraperitoneally into a group of five femal mice (ICR mice, body weight: 19-23 g). A test compound was dissolved in a physiological saline solution and administered intraperitoneally to the mice. The administration of the test compound was began 24 hours after the inoculation of the tumor cells and performed once a day for 5 days. The volume of ascites in the treated mice were measured after 7 days of the experiment.

[3] = test system: Ehrlich ascites carcinoma; assay: as above; format: in vivo, mice (ICR, female); details: for inhibition in vivo at 1.56 mg/kg: 1.56 mg/kg/day i.p.; for inhibition in vivo at 6.25 mg/kg: 6.25 mg/kg/day i.p.; for inhibition in vivo at 100 mg/kg: 100 mg/kg/day i.p.; for inhibition in vivo at 400 mg/kg: 400 mg/kg/day i.p.; for minimal effective dose: 168 h, min dose, 100% inhibition, read-out: MED (Minimum Effective Dose)
Protocol: as §1, §2

Leukemia L-1210 = assay: Effect on life span of mice implanted with leukemic cells of L-1210 (Method B); format: in vivo, mice (BDF1, male); details: 5 days
Protocol: (B) Effect on the life span of mice implanted with leukemic cells of L-1210
10^5 leukemic cells of L-1210 were inoculated intraperitoneally into a group of four male mice (BDF1 mice, body weight: 19-23 g). A test compound was dissolved in a physiological saline solution and administered intraperitoneally to the mice. The administration of the test compound was began 24 hours after the inoculation of the leukemic cells and performed once a day for 5 days. The survival days of the treated mice were observed.

leukemic cells = details: Japanese Patent Publication No. 141815/1976; cited from earlier work
[4] = Mus musculus, Ehrlich, ip, 120 h, 0.78 mg/kg/day i.p., 5 days, read-out: Inhibition ratio
[5] = Mus musculus, Ehrlich, ip, 120 h, 5 days, read-out: Inhibition ratio
[6] = Mus musculus, Ehrlich, ip, 120 h, 25 mg/kg/day i.p., 5 days, read-out: Inhibition ratio
[7] = Mus musculus, Ehrlich, ip, doses of the table in mg/kg/day
[8] = Mus musculus, Ehrlich, ip, 120 h, 0.39 mg/kg/day i.p., 5 days, read-out: Inhibition ratio
[9] = Mus musculus, Ehrlich, ip, 120 h, 0.19 mg/kg/day i.p., 5 days, read-out: Inhibition ratio

SMILES	MTD at 168 h [2] [mg/kg/day]	Toxic (number of mice died/number of mice used) ([3]; 800 mg/kg/day i.p., 5 days)	Therapeutic index (MTD/MED) [3]	inhibition in vivo at 0.78 mg/kg [3, 4] [%]	inhibition in vivo at 1.56 mg/kg [3, 5] [%]	inhibition in vivo at 6.25 mg/kg [3, 5] [%]	inhibition in vivo at 25 mg/kg [3, 6] [%]	inhibition in vivo at 100 mg/kg [3, 5] [%]	inhibition in vivo at 400 mg/kg [3, 5] [%]	minimal effective dose [3, 7] [mg/kg/day]	60-day survivors (mice survived/mice used) (Leukemia L-1210; 25 mg/kg/day i.p.)	ILS (Leukemia L-1210; 25 mg/kg/day i.p.) [%]	60-day survivors (mice survived/mice used) (Leukemia L-1210; 200 mg/kg/day i.p.)	ILS (Leukemia L-1210; 200 mg/kg/day i.p.) [%]	inhibition in vivo at 0.39 mg/kg [3, 8] [%]	Toxic (number of mice died/number of mice used) ([3]; 200 mg/kg/day i.p., 5 days)	60-day survivors (mice survived/mice used) (Leukemia L-1210; 50 mg/kg/day i.p.)	ILS (Leukemia L-1210; 50 mg/kg/day i.p.) [%]	other results
O=NN(CCCl)C(=O)NC1O[C@H](CO)[C@@H](O)[C@H](O)[C@@H]1O (stereo partly drawn) [1-(2-chloroethyl)-1-nitroso-3-(D-mannopyranosyl)urea]	–	–	–	–	–	–	–	–	–	–	–	–	–	–	–	–	–	–	life span of mice implanted with L-1210 [1]: increase the life span
COc1ccc(CN(C(=O)N(CCCl)N=O)C2O[C@H](CO)[C@@H](O[C@H]3O[C@H](CO)[C@@H](O)[C@H](O)[C@H]3O)[C@H](O)[C@H]2O)cc1 (stereo partly drawn) [Compound 3, 1-(2-chloroethyl)-1-nitroso-3-(p-methoxybenzyl)-3-[O-α-D-glucopyranosyl-(1→4)-D-glucopyranosyl]urea]	400	5/5	256	23.1	100	100	100	100	100	1.56	0/4	50.7	2/4	> 328.8	–	–	–	–	60-day survivors (mice survived/mice used) (Leukemia L-1210; 400 mg/kg/day i.p.): 4/4; ILS (Leukemia L-1210; 400 mg/kg/day i.p.): > 721.9%
O=NN(CCCl)C(=O)N(Cc1ccccc1)C1O[C@H](CO)[C@@H](O[C@H]2O[C@H](CO)[C@@H](O)[C@H](O)[C@H]2O)[C@H](O)[C@H]1O (stereo partly drawn) [Compound 1, 1-(2-chloroethyl)-1-nitroso-3-benzyl-3-[O-α-D-glucopyranosyl-(1→4)-D-glucopyranosyl]urea]	400	5/5	256	66.7	100	100	100	100	100	1.56	0/4	55.2	4/4	> 589.7	9.3	–	–	–	60-day survivors (mice survived/mice used) (Leukemia L-1210; 100 mg/kg/day i.p.): 1/4; ILS (Leukemia L-1210; 100 mg/kg/day i.p.): > 236.8%
O=NN(CCCl)C(=O)NC1O[C@H](CO)[C@@H](O[C@@H]2O[C@H](CO)[C@H](O)[C@H](O)[C@H]2O)[C@H](O)[C@H]1O (stereo partly drawn) [1-(2-chloroethyl)-1-nitroso-3-(D-lactosyl)urea]	–	–	–	–	–	–	–	–	–	–	–	–	–	–	–	–	–	–	anti-tumor activity against leukemic cells (leukemic cells): show anti-tumor activity
O=NN(CCCl)C(=O)NC1O[C@H](CO)[C@@H](O[C@H]2O[C@H](CO)[C@@H](O)[C@H](O)[C@H]2O)[C@H](O)[C@H]1O (stereo partly drawn) [1-(2-chloroethyl)-1-nitroso-3-(D-maltosyl)urea]	–	–	–	–	–	–	–	–	–	–	–	–	–	–	–	–	–	–	anti-tumor activity against leukemic cells (leukemic cells): show anti-tumor activity
O=NN(CCCl)C(=O)N(Cc1cccs1)C1OC[C@H](O)[C@H](O)[C@H]1O (stereo partly drawn) [Compound 13, 1-(2-chloroethyl)-1-nitroso-3-(thiophen-2-yl-methyl)-3-(L-arabinopyranosyl)urea]	100	–	128	100	100	100	100	100	–	0.78	2/4	> 442.9	–	–	54	5/5	2/4	> 414.3	inhibition in vivo at 0.19 mg/kg [3, 9]: 18%; 60-day survivors (mice survived/mice used) (Leukemia L-1210; 12.5 mg/kg/day i.p.): 0/4; ILS (Leukemia L-1210; 12.5 mg/kg/day i.p.): 121.4%
O=NN(CCCl)C(=O)N(CC1CC1)C1OC[C@H](O)[C@H](O)[C@H]1O (stereo partly drawn) [Compound 10, 1-(2-chloroethyl)-1-nitroso-3-cyclopropylmethyl-3-(L-arabinopyranosyl)urea]	100	–	128	100	100	100	100	100	–	0.78	4/4	> 721.9	–	–	79.5	5/5	4/4	> 721.9	inhibition in vivo at 0.19 mg/kg [3, 9]: 17.9%; 60-day survivors (mice survived/mice used) (Leukemia L-1210; 6.25 mg/kg/day i.p.): 0/4; ILS (Leukemia L-1210; 6.25 mg/kg/day i.p.): 82.2%
O=NN(CCCl)C(=O)N[C@@H]1O[C@H](CO)[C@@H](O)[C@H](O)[C@H]1O [GANU, 1-(2-chloroethyl)-1-nitroso-3-(D-glucopyranosyl)urea, reference compound]	–	–	32	–	–	–	–	–	–	0.39	–	–	–	–	–	–	–	–	life span of mice implanted with L-1210 [1]: increase the life span; Inhibition ratio ([3]; 0.09 mg/kg/day i.p., 5 days): 4.2%; Inhibition ratio ([3]; 0.19 mg/kg/day i.p., 5 days): 79.2%; Inhibition ratio ([3]; 0.39 mg/kg/day i.p., 5 days): 100%; Inhibition ratio ([3]; 0.78 mg/kg/day i.p., 5 days): 100%; Inhibition ratio ([3]; 3.12 mg/kg/day i.p., 5 days): 100%; Toxic (number of mice died/number of mice used) ([3]; 25 mg/kg/day i.p., 5 days): 5/5; MTD (Maximum Tolerated Dose) ([3]; max dose, 100% inhibition without death, doses of the table in mg/kg/day, 10080 min): 12.5
O=NN(CCCl)C(=O)N(CC1CC1)C1O[C@H](CO)[C@H](O)[C@H](O)[C@H]1O (stereo partly drawn) [Compound 8, 1-(2-chloroethyl)-1-nitroso-3-cyclopropylmethyl-3-(D-galactopyranosyl)urea]	100	–	128	100	100	100	100	100	–	0.78	4/4	> 650.0	–	–	21.1	3/5	4/4	> 650.0	60-day survivors (mice survived/mice used) (Leukemia L-1210; 6.25 mg/kg/day i.p.): 0/4; ILS (Leukemia L-1210; 6.25 mg/kg/day i.p.): 53.8%
O=NN(CCCl)C(=O)N(Cc1ccco1)C1O[C@H](CO)[C@@H](O[C@H]2O[C@H](CO)[C@@H](O)[C@H](O)[C@H]2O)[C@H](O)[C@H]1O (stereo partly drawn) [Compound 6, 1-(2-chloroethyl)-1-nitroso-3-furfuryl-3-[O-α-D-glucopyranosyl-(1→4)-D-glucopyranosyl]urea]	400	5/5	128	21.6	76.5	100	100	100	100	3.12	0/4	65.3	4/4	> 733.3	–	–	–	–	inhibition in vivo at 3.12 mg/kg ([3]; Mus musculus, Ehrlich, ip, 120 h, 3.12 mg/kg/day i.p., 5 days, read-out: Inhibition ratio): 100%; 60-day survivors (mice survived/mice used) (Leukemia L-1210; 100 mg/kg/day i.p.): 2/4; ILS (Leukemia L-1210; 100 mg/kg/day i.p.): > 351.4%
